From EP0013786A1, “Imidazole derivatives, pharmaceutical compositions containing them and their preparation” (SYNTEX (U.S.A.) INC., priority 1979, dated 1980)

Tested on: male Hilltop ICR-derived mice
Assay: Maximal electroshock test in mice
Type: in vivo
Details: Mus musculus, ip, 0.25 h; dosed intraperitoneally in saline 15 minutes prior to transcorneal maximal electroshock (50 milliamps, 0.2 seconds); antagonism of tonic extension; read-out: ED50 (95% confidence limits)
Procedure: This test was performed in the standard manner, essentially as described by Swinyard et al., J. Pharm. Exp. Ther., Vol. 106, pp. 319-330 (1952). Groups of 8-10 male Hilltop ICR-derived mice weighing 20-30 grams were dosed intraperitoneally with a solution or suspension of drug in saline 15 minutes prior to a transcorneal maximal electroshock (50 milli- amps, 0.2 seconds). […] An active compound was capable of antagonizing the occurrence of the tonic extension which occurred immediately after the electroshock.

Question: For COC(Cn1ccnc1)c1cccc2ccccc12 (stereo not drawn) [1-[2-(1-naphthyl)-2-(methoxy)ethyl]imidazole], which ED50 is on record?
Answer: 19.4 mg/kg

Question: For Cc1ccccc1OC(Cn1ccnc1)c1ccc2ccccc2c1 (stereo not drawn) [1-[2-(2-naphthyl)-2-(2-methylphenoxy)ethyl]imidazole], which ED50 is on record?
Answer: 32.6 mg/kg

Question: With CCCCOC(Cn1ccnc1)c1cccc2ccccc12 (stereo not drawn) [1-[2-(1-naphthyl)-2-(n-butoxy)ethyl]imidazole] as the compound, how does the ED50 read?
Answer: 16 mg/kg

Question: With CSC(Cn1ccnc1)c1ccc2ccccc2c1 (stereo not drawn) [1-[2-(2-naphthyl)-2-(methylthio)ethyl]imidazole] as the compound, how does the ED50 read?
Answer: 37.1 mg/kg

Question: With CCOC(Cn1ccnc1)c1ccc2ccccc2c1 (stereo not drawn) [1-[2-(2-naphthyl)-2-(ethoxy)ethyl]imidazole] as the compound, how does the ED50 read?
Answer: 11.4 mg/kg

Question: Which ED50 does the source give for c1ccc(OC(Cn2ccnc2)c2ccc3ccccc3c2)cc1 (stereo not drawn) [1-[2-(2-naphthyl)-2-(phenoxy)ethyl]imidazole] here?
Answer: 15.1 mg/kg

Question: Which ED50 does the source give for COC(Cn1ccnc1)c1ccc2ccccc2c1.Cl (stereo not drawn) [1-[2-(2-naphthyl)-2-(methoxy)ethyl]imidazole hydrochloride] here?
Answer: 10.4 mg/kg

Question: With Cl.Clc1ccc(OC(Cn2ccnc2)c2ccc3ccccc3c2)cc1 (stereo not drawn) [1[2-(2-naphthyl)-2-(4-chlorophenoxy)ethyl]imidazole hydrochloride] as the compound, how does the ED50 read?
Answer: 46.3 mg/kg

Tested on: not listed separately
Assay: Acute oral toxicity in mice
Details: mouse, in vivo; single oral dose by stomach tube, aqueous carboxymethyl cellulose vehicle, observed for three weeks
Procedure: The following example illustrates acute oral toxicity of a representative compound.
Protocol: The test compound, l-[2-(2-naphthyl)-2-(methoxy)ethyl'imidazole hydrochloride, is suspended in an aqueous carboxymethyl cellulose suspending vehicle. Concentrations are adjusted so that doses can be given in volumes of 10 ml./kg. body weight. Groups of mice comprising six Swiss-Webster male mice in each group are used. A single oral dose, by stomach tube, of a final dosage of test compound is administered to the mice in each group. Each group receives a different dosage, one group serving as a control. After administration the mice are observed for a three week period.

Question: Which LD50 at 504 h does the source give for COC(Cn1ccnc1)c1ccc2ccccc2c1.Cl (stereo not drawn) [1-[2-(2-naphthyl)-2-(methoxy)ethyl]imidazole hydrochloride] here?
Answer: ~100 mg/kg
